Each structure is given as a SMILES string.

These results are taken from patent US20040014706A1, “Use of carp inhibitors for the treatment of heart diseases” (priority 2000, published 2004).

Test [1] has as its system CARP mRNA. As to the kind of experiment: CARP mRNA levels in isolated myocytes treated with adrenoceptor agonists and kinase inhibitors. In kind it is cell-based. The conditions noted are these: for reversal of the effects of ISO and PE on CARP mRNA expression: ISO 1 μM, PE 50 μM; for CARP mRNA/GAPDH mRNA: ISO 1 μM (n=9), PE 50 μM (n=11). The procedure: (§1) Male Wistar rats were treated with isoprenaline (ISO, 2.4 mg/kg/d, Alzet mini pump) for 4 days. Controls were infused with NaCl. […] To gain further insight into the mechanism by which CARP expression is regulated, isolated myocytes were treated with ISO (1 μM) and phenylephrine (PE, 50 μM). For comparison the effects of the alpha-adrenoceptor agonist phenylephrine (PE, 50 μM) were studied.

Test [2] deals with CARP protein. Briefly: CARP protein levels in isolated myocytes treated with adrenoceptor agonists. In kind it is cell-based. The conditions noted are these: ISO 1 μM, PE 50 μM, n=4. The procedure: as §1
The subject of test [3] is CARP protein. As to the kind of experiment: CARP protein in treated rats, Western blot. Format: in vivo, Male Wistar rats. The settings on record: 2.4 mg/kg/d, 4 days. As for the experimental part:
as §1
In general terms: Immunoblotting shows a protein as a band on a membrane.

Test [4] is described as follows: Isoprenaline-induced cardiac hypertrophy in rats (heart weight/body weight). Format: in vivo, Male Wistar rats. The settings on record: 2.4 mg/kg/d, Alzet mini pump, 4 days; vs NaCl controls. The procedure:
as §1

Test [5] has as its system CARP mRNA. As to the kind of experiment: CARP mRNA expression in left ventricular myocardium of treated rats, Northern blot. In kind it is in vivo, Male Wistar rats. The conditions noted are these: 2.4 mg/kg/d, 4 days. As for the experimental part:
as §1

For the compound `N#CC(=C(/N)Sc1ccccc1N)/C(C#N)=C(\N)Sc1ccccc1N` [U0126], in the test with CARP mRNA [1], the “reversal of the effects of ISO and PE on CARP mRNA expression” value was “completely reversed”.

Consider `C[S+]([O-])c1ccc(-c2nc(-c3ccncc3)c(-c3ccc(F)cc3)[nH]2)cc1` (centres unmarked) [SB203580], for which, in the test on CARP mRNA [1], the “reversal of the effects of ISO and PE on CARP mRNA expression” value is “not”.

For `CNC[C@H](O)c1cccc(O)c1` [PE, phenylephrine], the “CARP mRNA/GAPDH mRNA” value with CARP mRNA [1] is given as 178±20 % of control. For the same compound, the “CARP/CSQ (CARP protein level)” value in the test on CARP protein [2] is listed as 172±7 % of control.

For the compound `CC(C)NCC(O)c1ccc(O)c(O)c1` (centres unmarked) [ISO, isoprenaline], the “CARP mRNA/GAPDH mRNA” value in the test on CARP mRNA [1] is listed as 148±10 % of control; in the test with CARP mRNA [5] (LV myocardium, n=6, NaCl control 1.3±0.12), 3.1±0.5. Also, in the test on CARP protein [3] (Western blot, vs NaCl), the “increase in CARP protein” value is 50%. The compound also showed a CARP/calsequestrin in the test with CARP protein [3] (n=6, NaCl control 0.41±0.03) of 0.61±0.07. In test [4], the “increase in heart weight/body weight ratio” value was 40%. The “increase in CARP mRNA expression in left ventricular (LV) myocardium” value in the test on CARP mRNA [5] (Northern blot, vs NaCl) was determined as 140%. Moreover, the “CARP/CSQ (CARP protein level)” value in the test on CARP protein [2] is recorded as 161±10 % of control.
